Results as given in PubChem BioAssay AID2060601 (Molecular Pharmacology Branch, DTP, NCI, 2025).

System: 874868-142-R-J2-PDC complex spheroids, growth % test/control
Experiment: Anticancer human tumor 874868-142-R-J2-PDC patient-derived head and neck squamous carcinoma cell line growth inhibition [CLK]
Conditions: for IC50: curve of first compound; for viability, T/C: stronger effect = lower value
Summary of the method: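 Patient-derived tumor cells grown as complex spheroids with HUVEC endothelial cells and mesenchymal stem cells, treated with drug combinations. Concentrations descend in half-log steps from near clinical Cmax, or from 10 microM if Cmax unknown.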

[1] = second compound 0.0316 µM, first compound 0.0316 µM
[2] = second compound 0.0316 µM, first compound 0.1 µM
[3] = second compound 0.0316 µM, first compound 0.316 µM
[4] = second compound 0.0316 µM, first compound 1 µM
[5] = second compound 0.0316 µM, first compound 3.16 µM
[6] = second compound 0.0316 µM, first compound 10 µM
[7] = second compound 0.1 µM, first compound 0.0316 µM
[8] = second compound 0.1 µM, first compound 0.1 µM
[9] = second compound 0.1 µM, first compound 0.316 µM
[10] = second compound 0.1 µM, first compound 1 µM
[11] = second compound 0.1 µM, first compound 3.16 µM
[12] = second compound 0.1 µM, first compound 10 µM
[13] = second compound 0.316 µM, first compound 0.0316 µM
[14] = second compound 0.316 µM, first compound 0.1 µM
[15] = second compound 0.316 µM, first compound 0.316 µM
[16] = second compound 0.316 µM, first compound 1 µM
[17] = second compound 0.316 µM, first compound 3.16 µM
[18] = second compound 0.316 µM, first compound 10 µM
[19] = second compound 1 µM, first compound 0.0316 µM
[20] = second compound 1 µM, first compound 0.1 µM
[21] = second compound 1 µM, first compound 0.316 µM
[22] = second compound 1 µM, first compound 1 µM
[23] = second compound 1 µM, first compound 3.16 µM
[24] = second compound 1 µM, first compound 10 µM
[25] = second compound 3.16 µM, first compound 0.0316 µM
[26] = second compound 3.16 µM, first compound 0.1 µM
[27] = second compound 3.16 µM, first compound 0.316 µM
[28] = second compound 3.16 µM, first compound 1 µM
[29] = second compound 3.16 µM, first compound 3.16 µM
[30] = second compound 3.16 µM, first compound 10 µM
[31] = second compound 10 µM, first compound 0.0316 µM
[32] = second compound 10 µM, first compound 0.1 µM
[33] = second compound 10 µM, first compound 0.316 µM
[34] = second compound 10 µM, first compound 1 µM
[35] = second compound 10 µM, first compound 3.16 µM
[36] = second compound 10 µM, first compound 10 µM
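Note: spheroids exposed to the compounds for 7 days.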
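Throughout, for viability, T/C: 100% = DMSO vehicle control viability.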

CC1(C)CCC(CN2CCN(c3ccc(C(=O)NS(=O)(=O)c4ccc(NCC5CCOCC5)c([N+](=O)[O-])c4)c(Oc4cnc5[nH]ccc5c4)c3)CC2)=C(c2ccc(Cl)cc2)C1 + CN1CCN(c2cc(C(=O)Nc3cc4cc(-c5cnn(C)c5)ccc4cn3)ccn2)CC1
IC50 (second compound 0.0316 µM): > 10000 nM
IC50 (second compound 0.1 µM): > 10000 nM
IC50 (second compound 0.316 µM): < 31.6 nM
IC50 (second compound 1 µM): < 31.6 nM
IC50 (second compound 3.16 µM): < 31.6 nM
IC50 (second compound 10 µM): < 31.6 nM
viability, T/C [1]: 72.6%
viability, T/C [2]: 90.4%
viability, T/C [3]: 69.6%
viability, T/C [4]: 96.1%
viability, T/C [5]: 76.6%
viability, T/C [6]: 70%
viability, T/C [7]: 77.6%
viability, T/C [8]: 69.9%
viability, T/C [9]: 67.1%
viability, T/C [10]: 75.9%
viability, T/C [11]: 47.2%
viability, T/C [12]: 58.9%
viability, T/C [13]: 20.8%
viability, T/C [14]: 17.6%
viability, T/C [15]: 17%
viability, T/C [16]: 18.8%
viability, T/C [17]: 12.8%
viability, T/C [18]: 11.3%
viability, T/C [19]: 0.46%
viability, T/C [20]: 4.39%
viability, T/C [21]: 0.38%
viability, T/C [22]: 0.29%
viability, T/C [23]: 0.25%
viability, T/C [24]: 0.25%
viability, T/C [25]: 0.23%
viability, T/C [26]: 0.22%
viability, T/C [27]: 0.22%
viability, T/C [28]: 0.13%
viability, T/C [29]: 0.22%
viability, T/C [30]: 0.19%
viability, T/C [31]: 0.13%
viability, T/C [32]: 3.51%
viability, T/C [33]: 1.25%
viability, T/C [34]: 0.25%
viability, T/C [35]: 0.17%
viability, T/C [36]: 1.58%

CC1COCCN1c1cc(C2(S(C)(=N)=O)CC2)nc(-c2ccnc3[nH]ccc23)n1 (stereo unspecified) + CN1CCN(c2cc(C(=O)Nc3cc4cc(-c5cnn(C)c5)ccc4cn3)ccn2)CC1
IC50 (second compound 0.0316 µM): 1900 nM
IC50 (second compound 0.1 µM): 578 nM
IC50 (second compound 0.316 µM): < 31.6 nM
IC50 (second compound 1 µM): < 31.6 nM
IC50 (second compound 3.16 µM): < 31.6 nM
IC50 (second compound 10 µM): < 31.6 nM
viability, T/C [1]: 87.7%
viability, T/C [2]: 82.5%
viability, T/C [3]: 71.3%
viability, T/C [4]: 73.5%
viability, T/C [5]: 31.2%
viability, T/C [6]: 27.6%
viability, T/C [7]: 68.9%
viability, T/C [8]: 60.9%
viability, T/C [9]: 59.3%
viability, T/C [10]: 42%
viability, T/C [11]: 20.8%
viability, T/C [12]: 20.9%
viability, T/C [13]: 16.6%
viability, T/C [14]: 19.8%
viability, T/C [15]: 18.4%
viability, T/C [16]: 10.8%
viability, T/C [17]: 13.7%
viability, T/C [18]: 7.51%
viability, T/C [19]: 0.41%
viability, T/C [20]: 0.3%
viability, T/C [21]: 0.49%
viability, T/C [22]: 0.28%
viability, T/C [23]: 0.29%
viability, T/C [24]: 0.24%
viability, T/C [25]: 0.19%
viability, T/C [26]: 0.25%
viability, T/C [27]: 0.22%
viability, T/C [28]: 0.29%
viability, T/C [29]: 1.32%
viability, T/C [30]: 0.36%
viability, T/C [31]: 5.76%
viability, T/C [32]: 0.21%
viability, T/C [33]: 1.83%
viability, T/C [34]: 0.21%
viability, T/C [35]: 0.21%
viability, T/C [36]: 0.23%

NC(=O)C(=Cn1cnc(-c2cc(C(F)(F)F)cc(C(F)(F)F)c2)n1)c1cncnc1 + CN1CCN(c2cc(C(=O)Nc3cc4cc(-c5cnn(C)c5)ccc4cn3)ccn2)CC1
IC50 (second compound 0.0316 µM): 51.3 nM
IC50 (second compound 0.1 µM): < 9.49 nM
IC50 (second compound 0.316 µM): < 9.49 nM
IC50 (second compound 1 µM): < 9.49 nM
IC50 (second compound 3.16 µM): < 9.49 nM
IC50 (second compound 10 µM): < 9.49 nM
viability, T/C (second compound 0.0316 µM, first compound 0.00949 µM): 69.8%
viability, T/C (second compound 0.0316 µM, first compound 0.03 µM): 62.5%
viability, T/C (second compound 0.0316 µM, first compound 0.0949 µM): 35.4%
viability, T/C (second compound 0.0316 µM, first compound 0.3 µM): 20.1%
viability, T/C (second compound 0.0316 µM, first compound 0.949 µM): 1.73%
viability, T/C (second compound 0.0316 µM, first compound 3 µM): 2.54%
viability, T/C (second compound 0.1 µM, first compound 0.00949 µM): 50%
viability, T/C (second compound 0.1 µM, first compound 0.03 µM): 44.8%
viability, T/C (second compound 0.1 µM, first compound 0.0949 µM): 25.2%
viability, T/C (second compound 0.1 µM, first compound 0.3 µM): 3.61%
viability, T/C (second compound 0.1 µM, first compound 0.949 µM): 0.81%
viability, T/C (second compound 0.1 µM, first compound 3 µM): 0.34%
viability, T/C (second compound 0.316 µM, first compound 0.00949 µM): 14%
viability, T/C (second compound 0.316 µM, first compound 0.03 µM): 5.04%
viability, T/C (second compound 0.316 µM, first compound 0.0949 µM): 0.53%
viability, T/C (second compound 0.316 µM, first compound 0.3 µM): 0.23%
viability, T/C (second compound 0.316 µM, first compound 0.949 µM): 0.23%
viability, T/C (second compound 0.316 µM, first compound 3 µM): 0.1%
viability, T/C (second compound 1 µM, first compound 0.00949 µM): 0.37%
viability, T/C (second compound 1 µM, first compound 0.03 µM): 0.25%
viability, T/C (second compound 1 µM, first compound 0.0949 µM): 0.32%
viability, T/C (second compound 1 µM, first compound 0.3 µM): 0.28%
viability, T/C (second compound 1 µM, first compound 0.949 µM): 0.22%
viability, T/C (second compound 1 µM, first compound 3 µM): 1.66%
viability, T/C (second compound 3.16 µM, first compound 0.00949 µM): 0.39%
viability, T/C (second compound 3.16 µM, first compound 0.03 µM): 0.31%
viability, T/C (second compound 3.16 µM, first compound 0.0949 µM): 0.46%
viability, T/C (second compound 3.16 µM, first compound 0.3 µM): 0.38%
viability, T/C (second compound 3.16 µM, first compound 0.949 µM): 0.19%
viability, T/C (second compound 3.16 µM, first compound 3 µM): 0.14%
viability, T/C (second compound 10 µM, first compound 0.00949 µM): 0.14%
viability, T/C (second compound 10 µM, first compound 0.03 µM): 0.14%
viability, T/C (second compound 10 µM, first compound 0.0949 µM): 3.64%
viability, T/C (second compound 10 µM, first compound 0.3 µM): 0.17%
viability, T/C (second compound 10 µM, first compound 0.949 µM): 0.24%
viability, T/C (second compound 10 µM, first compound 3 µM): 0.2%
